Test results published in patent US11130974B2, “Hydroxylated fatty acid homopolymer and production method thereof” (KYOTO UNIVERSITY, priority 2017, dated 2021).

Molecular target: T1, hydroxylated fatty acid dehydrogenase (CLA-DH) (Lactiplantibacillus plantarum, UniProt P0DX40)
T1 construct: made in house; host or cells: Escherichia coli (cell-free extract, not purified)
T1 sequence (P0DX40 1-286): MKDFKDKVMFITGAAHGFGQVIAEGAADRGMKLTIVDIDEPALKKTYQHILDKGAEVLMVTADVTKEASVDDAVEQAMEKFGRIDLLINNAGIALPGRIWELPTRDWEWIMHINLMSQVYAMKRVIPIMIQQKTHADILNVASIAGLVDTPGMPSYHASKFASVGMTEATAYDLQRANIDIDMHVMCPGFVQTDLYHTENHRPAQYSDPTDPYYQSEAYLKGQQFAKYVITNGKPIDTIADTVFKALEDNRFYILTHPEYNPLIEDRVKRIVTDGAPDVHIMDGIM
Assay: Comparison of oxidation stability: oxidation reaction with NAD+ in the presence of hydroxylated fatty acid dehydrogenase (CLA-DH), NADH measured at 340 nm
Type: biochemical
Details: 0.143 mg/mL substrate (0.48 mM HYA), 4 mM NAD+, CLA-DH-expressing Escherichia coli cell-free extract, 37° C., about 6 min
Description: The oxidation stability was compared between the reaction extract (homopolymer mixture) obtained in Example 1 and HYA. The oxidation reaction was performed using NAD^+ as an electron receptor in the presence of hydroxylated fatty acid dehydrogenase (CLA-DH) (S. Kishino et al., Polyunsaturated fatty acid saturation by gut lactic acid bacteria affecting host lipid composition. Proc. Natl. Acad. Sci. USA, 110(44), 17808-17813, 2013).
The reaction mixture (3 mL) contained CLA-DH-expressing Escherichia coli cell-free extract (150 μL, derived from 50 mg Escherichia coli wet cells) as hydroxylated fatty acid dehydrogenase, 4 mM NAD^+, 150 μL of ethanol, and 0.48 mM (0.143 mg/mL) HYA or equal amount (0.143 mg/mL) of a homopolymer mixture as a substrate, and the reaction was started by the addition of hydroxylated fatty acid dehydrogenase and performed at 37° C. for about 6 min. […] The progress of oxidation was quantified by measuring the change in absorbance at 340 nm of NADH amount produced by the oxidation of the substrate (the molecular absorption coefficient of NADH was 6.3×10^3 L·mol^−1 cm^−1).

Structure (SMILES): CCCCC/C=C\CC(O)CCCCCCCCC(=O)O (stereo not drawn) [HYA, 10-hydroxy-cis-12-octadecenoic acid]
- oxidation rate: 2.9 µM/min
